Data set [1] can be described thus: Solubility of compound A in Britton-Robinson buffer at each pH. The class given is physicochemical. Particulars: 20° C., 30 minutes. How it is done: Regarding a compound A, the solubility was measured by measuring the solubility in the Britton-Robinson buffer at 20° C. at each pH of pHs 1, 3, 5, 7, 9, 11 and 13. The compound A was added to a solution at each pH, the mixture was vigorously stirred for 30 seconds every 5 minutes, and an amount of a physiologically active substance dissolved at a time point of 30 minutes was measured (according to a method of confirming the solubility described in Japanese Pharmacopoeia, general rules).

Each structure is given as a SMILES string.

Experimental findings from patent US20040137052A1, “Acid-containing preparations” (priority 2001, published 2004) are described below.

In the case of `CCOC(=O)CNC(=O)c1cn2nc(NCCCN3CCC(OC(c4ccccc4)c4ccccc4)CC3)ccc2n1` (hydrate or solvate) [Reference Example 7, N-[6-[3-[4-(diphenylmethoxy)piperidino]propylamino]imidazo[1,2-b]pyridazine-2-carbonyl]glycine ethyl ester], the melting point (in general, the temperature of the solid-liquid transition) lay in the range of 172 to 174 °C.

Consider `CC(C)(C(=O)O)c1cn2nc(NCCCN3CCC(OC(c4ccccc4)c4ccccc4)CC3)ccc2n1.O.O` (hydrate or solvate) [compound A, 2-[6-[3-[4-(diphenylmethoxy)piperidino]propylamino]imidazo[1,2-b]pyridazin-2-yl]-2-methylpropionic acid dihydrate], for which the melting point was 203 to 205 °C. Consider `CC(C)(C(=O)O)c1cn2nc(NCCCN3CCC(OC(c4ccccc4)c4ccccc4)CC3)ccc2n1` [Reference Example 4, 2-[6-[3-[4-(diphenylmethoxy)piperidino]propylamino]imidazo[1,2-b]pyridazin-2-yl]-2-methylpropionic acid], for which the melting point was in the range of 205 to 206 °C. In the case of `CC(C)(C(=O)O)c1cn2nc(NCCCN3CCC(OC(c4ccccc4)c4ccccc4)CC3)ccc2n1.O.O` [compound A, 2-[6-[3-[4-(diphenylmethoxy)piperidino]propylamino]imidazo[1,2-b]pyridazin-2-yl]-2-methylpropionic acid dihydrate], the “solubility on an acidic side or an alkaline side” value in data set [1] (acidic or alkaline pH) was “enhanced solubility”. Also, in data set [1] (neutral pH), the “solubility at neutral pH” value is recorded as “hardly dissolved”.
